{"source": "patent US8956824B2", "about": "“Methods for identifying allosteric modulators of ship polypeptides” (British Columbia Cancer Agency Branch, priority 2006, dated 2015)", "key": {"wild-type SHIP1 enzyme": {"target": "T1, wild-type SHIP1 enzyme (Mus musculus, UniProt Q9ES52)", "T1 construct": "Full length, wild-type SHIP1 enzyme (wt); made in house; host or cells: 293T cells, transient transfection with pME18S-His-SHIP", "T1 sequence (Q9ES52 1-1191)": "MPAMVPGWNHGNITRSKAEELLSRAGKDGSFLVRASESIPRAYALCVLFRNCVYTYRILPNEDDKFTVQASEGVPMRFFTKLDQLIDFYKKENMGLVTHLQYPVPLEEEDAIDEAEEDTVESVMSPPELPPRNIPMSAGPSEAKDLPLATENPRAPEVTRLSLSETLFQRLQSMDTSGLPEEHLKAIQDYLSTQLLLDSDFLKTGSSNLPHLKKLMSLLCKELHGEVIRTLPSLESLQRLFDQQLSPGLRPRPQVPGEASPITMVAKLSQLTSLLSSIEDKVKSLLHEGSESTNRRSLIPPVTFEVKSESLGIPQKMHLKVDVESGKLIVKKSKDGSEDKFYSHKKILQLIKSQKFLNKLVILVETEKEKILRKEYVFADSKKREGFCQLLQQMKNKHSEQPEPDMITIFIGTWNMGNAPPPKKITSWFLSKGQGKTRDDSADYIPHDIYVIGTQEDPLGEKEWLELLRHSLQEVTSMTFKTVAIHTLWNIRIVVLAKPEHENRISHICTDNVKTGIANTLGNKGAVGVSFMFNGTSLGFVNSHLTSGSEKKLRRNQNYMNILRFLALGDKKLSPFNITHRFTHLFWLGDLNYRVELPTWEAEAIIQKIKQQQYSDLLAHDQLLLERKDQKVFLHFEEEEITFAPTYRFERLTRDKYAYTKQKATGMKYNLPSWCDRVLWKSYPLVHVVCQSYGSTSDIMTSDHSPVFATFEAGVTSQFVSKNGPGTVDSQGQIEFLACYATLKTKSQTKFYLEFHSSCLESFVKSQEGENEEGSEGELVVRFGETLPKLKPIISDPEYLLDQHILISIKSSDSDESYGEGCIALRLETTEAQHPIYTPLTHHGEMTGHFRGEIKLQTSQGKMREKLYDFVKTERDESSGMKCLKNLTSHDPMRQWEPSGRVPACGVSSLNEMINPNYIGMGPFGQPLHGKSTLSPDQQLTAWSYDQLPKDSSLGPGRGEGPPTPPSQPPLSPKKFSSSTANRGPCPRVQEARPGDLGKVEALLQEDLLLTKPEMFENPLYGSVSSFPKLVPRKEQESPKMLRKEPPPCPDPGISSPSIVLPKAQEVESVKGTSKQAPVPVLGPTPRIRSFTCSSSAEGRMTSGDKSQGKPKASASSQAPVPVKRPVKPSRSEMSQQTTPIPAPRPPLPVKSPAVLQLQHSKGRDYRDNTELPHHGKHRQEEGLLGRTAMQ", "experiment": "Scintillation proximity assay, wild-type SHIP1", "type": "binding", "details": "5 μCi", "experimental": "(§1) Scintillation Proximity Assays AQX-MN100 was radiolabeled with tritium by GE Healthcare (Piscataway, N.J.) to a specific activity of 42 Ci/mmole. Copper chelate (His-Tag) YSi YSi SPA Scintillation Beads (GE Healthcare ,Piscataway, NJ) were diluted in 0.25% BSA/TBS to 1.5 mg/mL and recombinant, His6-tagged protein added at the indicated concentrations: wild-type (1 pM), ΔC2 SHIP enzyme (1 pM) or C2 domain (10 nM). Protein was allowed to bind 1 h at 23° C., and 250 μg of beads were aliquoted per well of a 96-well plate. 5 μCi of [3H]-AQX-MN100 was added per well, the plate gently agitated for 30 min and the amount of bead associated radioactivity quantified by counting in a Wallac BETAPLATE™ plate scintillation counter. Results are representative of 3 independent experiments."}, "[1]": {"target": "T2, C2 domain deleted (ΔC2) SHIP1 enzyme (Mus musculus, UniProt Q9ES52, DEL725-860/G861A/K862A/M863A)", "T2 construct": "Full length, wild-type SHIP1 enzyme (wt) or SHIP1 enzyme in which the PH or C2 domains were deleted; made in house; 293T cells are stated only for the wild-type enzyme", "T2 sequence (Q9ES52 with tags, fused parts or gaps DEL725-860/G861A/K862A/M863A limits assumed)": "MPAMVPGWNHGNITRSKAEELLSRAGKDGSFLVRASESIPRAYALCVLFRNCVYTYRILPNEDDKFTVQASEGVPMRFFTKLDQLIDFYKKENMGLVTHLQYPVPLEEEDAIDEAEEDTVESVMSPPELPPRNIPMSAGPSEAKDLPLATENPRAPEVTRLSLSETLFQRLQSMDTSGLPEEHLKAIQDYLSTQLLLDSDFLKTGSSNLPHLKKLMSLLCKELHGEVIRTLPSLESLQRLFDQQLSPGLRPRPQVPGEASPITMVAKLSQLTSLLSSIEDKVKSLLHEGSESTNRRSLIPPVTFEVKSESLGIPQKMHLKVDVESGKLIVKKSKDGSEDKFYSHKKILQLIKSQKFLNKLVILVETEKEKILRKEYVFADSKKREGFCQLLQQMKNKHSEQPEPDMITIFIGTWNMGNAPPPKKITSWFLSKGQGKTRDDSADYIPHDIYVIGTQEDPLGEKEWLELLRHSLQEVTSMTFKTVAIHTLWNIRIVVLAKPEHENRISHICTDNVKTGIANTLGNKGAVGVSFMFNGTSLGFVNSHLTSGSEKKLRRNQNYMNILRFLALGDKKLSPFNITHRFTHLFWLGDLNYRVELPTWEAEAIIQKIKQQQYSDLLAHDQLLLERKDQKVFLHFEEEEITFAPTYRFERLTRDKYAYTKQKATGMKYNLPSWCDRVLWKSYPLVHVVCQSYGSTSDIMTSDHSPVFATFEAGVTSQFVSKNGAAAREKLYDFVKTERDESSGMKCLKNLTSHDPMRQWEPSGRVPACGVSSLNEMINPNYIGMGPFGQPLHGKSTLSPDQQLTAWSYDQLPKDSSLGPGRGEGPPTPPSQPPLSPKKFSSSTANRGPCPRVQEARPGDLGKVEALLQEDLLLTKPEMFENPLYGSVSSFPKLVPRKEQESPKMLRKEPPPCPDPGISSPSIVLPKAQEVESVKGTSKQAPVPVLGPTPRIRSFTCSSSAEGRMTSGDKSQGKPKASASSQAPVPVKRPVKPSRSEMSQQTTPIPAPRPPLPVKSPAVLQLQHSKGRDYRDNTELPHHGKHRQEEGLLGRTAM", "experiment": "Scintillation proximity assay, ΔC2 SHIP1", "type": "binding", "details": "5 μCi", "experimental": "as §1"}}, "note": "Entries after “also recorded” stand apart in the source; their conditions may differ."}
{"smiles": "Cc1cc(O)cc2c1[C@]1(C)CC[C@H]3C(C)(C)CCC[C@]3(C)[C@H]1C2", "note": "[AQX-MN100]", "values": [{"measurement": "binding of [3H]-AQX-MN100 to wild-type SHIP1", "setting": "wild-type SHIP1 enzyme", "value": "binds to wild-type SHIP1"}, {"measurement": "binding of [3H]-AQX-MN100 to SHIP1 lacking its C2 domain", "setting": "[1]", "value": "C2 domain is required for SHIP1 to bind; also recorded: requires the C2 domain to bind"}]}
